Assay [1] relates to rats. As to the kind of experiment: Forced swim as a measure of depression. Type of assay: in vivo, rat. Conditions: high dose, repeated ghrelin receptor stimulation. From the text: Forced swim as a measure of depression was also examined. […] Repeated ghrelin receptor stimulation (mimicking one effect of chronic stress, which is to enhance the circulating levels of ghrelin and thus ghrelin signaling) induces depressive behaviors in rats.

For assay [2], the system named is GH-mediated signaling in the BLA. In words: Auditory fear conditioning after intra-BLA AAV (GHA or GFP) and 10 days systemic MK-0677 or saline. Type of assay: in vivo, rat. Conditions: repeated systemic MK-0677 for 10 days. As to the method: An AAV viral construct to overexpress a mutant form of the rat GH protein (GHA) that acts as a functional antagonist to endogenous GH was generated.^49,50 Following infusion of AAV to overexpress either GHA or a control protein (GFP) (FIG. 5f), rats were permitted to recover for 5 weeks. After recovery, rats that were infused with GHA received daily injections of either the ghrelin receptor agonist MK-0677 (MK) or saline (SAL) for 10 days. […] At 24 h after the final injection, all rats were subjected to auditory fear conditioning, followed by assessment of long-term auditory fear memory in a subsequent session 48 h later.

The target of assay [3] is T1, ghrelin receptor in BLA cells (Rattus norvegicus, UniProt O08725).
T1 construct: short-term cultures were generated of BLA cells and measured GH protein in the media following treatment with either MK-0677 or vehicle; endogenous in cells; host or cells: short-term primary cultures of basolateral amygdala (BLA) cells
As to the kind of experiment: GH release from short-term BLA cell cultures. Type of assay: cell-based. Conditions: versus vehicle, P<0.05. From the text: To determine whether ghrelin receptor stimulation in amygdala triggers the release of GH as it does from the pituitary,^43 short-term cultures were generated of BLA cells and measured GH protein in the media following treatment with either MK-0677 or vehicle.

Assay [4] relates to rats. In words: Sucrose preference (measuring hedonia) as a measure of depression. Conditions: repeated ghrelin receptor stimulation. The class given is in vivo, rat. The text has this: Sucrose preference (measuring hedonia) as a measure of depression with low dose MK0677 or high dose MK0677 was also examined. […] Repeated ghrelin receptor stimulation (mimicking one effect of chronic stress, which is to enhance the circulating levels of ghrelin and thus ghrelin signaling) induces depressive behaviors in rats.

T1 sequence (O08725 whole entry): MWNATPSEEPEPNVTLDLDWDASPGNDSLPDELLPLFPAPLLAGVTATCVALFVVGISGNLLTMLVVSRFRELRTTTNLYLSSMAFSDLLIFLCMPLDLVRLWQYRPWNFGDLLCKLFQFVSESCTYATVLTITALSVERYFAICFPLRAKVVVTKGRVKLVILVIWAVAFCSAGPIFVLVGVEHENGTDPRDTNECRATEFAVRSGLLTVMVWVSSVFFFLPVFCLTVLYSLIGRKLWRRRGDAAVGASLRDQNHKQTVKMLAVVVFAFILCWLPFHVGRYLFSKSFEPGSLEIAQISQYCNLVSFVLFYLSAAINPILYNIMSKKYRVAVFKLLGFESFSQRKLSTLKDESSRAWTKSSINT

For `CC(C)(N)C(=O)N[C@H](COCc1ccccc1)C(=O)N1CCC2(CC1)CN(S(C)(=O)=O)c1ccccc12` [MK-0677], the forced swim behaviour result in assay [1] is given as “led to immobility in the forced swim”. For the same compound, the “long-term auditory fear memory” value in assay [2] is given as “fear-enhancing effects”. Further, the “GH protein released in the media” value in assay [3] is “significantly elevated release of GH”. The “sucrose preference (hedonia)” value in assay [4] (high dose) and in assay [4] (low dose) was “led to anhedonia” in each case.

The record behind these values is patent US20140287997A1, “USE OF GROWTH HORMONE OR GROWTH HORMONE RECEPTOR AGONISTS TO PREVENT OR TREAT STRESS-SENSITIVE PSYCHIATRIC ILLNESS” (Massachusetts Institute of Technology, priority 2013, published 2014).
